In the supplement of paper PMC10307832:

Experiments:
Assay in all cases: relative viability (nuclei count vs DMSO), 5 days (fraction); higher = more cells survive
Bosutinib + Tozasertib = compound: COc1cc(Nc2c(C#N)cnc3cc(OCCCN4CCN(C)CC4)c(OC)cc23)c(Cl)cc1Cl [Bosutinib] + Cc1cc(Nc2cc(N3CCN(C)CC3)nc(Sc3ccc(NC(=O)C4CC4)cc3)n2)n[nH]1 [Tozasertib] (partner 0.1 µM)
Method in brief: (§1)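 Lung cancer cell lines were pin-tool dosed in 1536-well plates on the day after seeding, with either a lone drug or a fixed anchor-drug dose plus five library-drug doses (not always all listed) in √10 steps. Nuclei were counted on 4× images after 5 days. Relative viability is the ratio of treated-well to vehicle-well nuclei counts, with each value a median of duplicate plates.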

Bosutinib + Dasatinib = compound: COc1cc(Nc2c(C#N)cnc3cc(OCCCN4CCN(C)CC4)c(OC)cc23)c(Cl)cc1Cl [Bosutinib] + Cc1nc(Nc2ncc(C(=O)Nc3c(C)cccc3Cl)s2)cc(N2CCN(CCO)CC2)n1 [Dasatinib] (partner 0.075 µM)
Method in brief: as §1

Bosutinib + Foretinib = compound: COc1cc(Nc2c(C#N)cnc3cc(OCCCN4CCN(C)CC4)c(OC)cc23)c(Cl)cc1Cl [Bosutinib] + COc1cc2c(Oc3ccc(NC(=O)C4(C(=O)Nc5ccc(F)cc5)CC4)cc3F)ccnc2cc1OCCCN1CCOCC1 [Foretinib] (partner 0.25 µM)
Method in brief: as §1

Bosutinib + Decitabine = compound: COc1cc(Nc2c(C#N)cnc3cc(OCCCN4CCN(C)CC4)c(OC)cc23)c(Cl)cc1Cl [Bosutinib] + Nc1ncn([C@H]2C[C@H](O)[C@@H](CO)O2)c(=O)n1 [Decitabine] (partner 2 µM)
Method in brief: as §1

Bosutinib + Navitoclax = compound: COc1cc(Nc2c(C#N)cnc3cc(OCCCN4CCN(C)CC4)c(OC)cc23)c(Cl)cc1Cl [Bosutinib] + CC1(C)CCC(c2ccc(Cl)cc2)=C(CN2CCN(c3ccc(C(=O)NS(=O)(=O)c4ccc(N[C@H](CCN5CCOCC5)CSc5ccccc5)c(S(=O)(=O)C(F)(F)F)c4)cc3)CC2)C1 [Navitoclax] (partner 0.5 µM)
Method in brief: as §1

Cell Line	relative viability (Bosutinib + Tozasertib; first compound 0.01 µM)	relative viability (Bosutinib + Tozasertib; first compound 0.03162 µM)	relative viability (Bosutinib + Tozasertib; first compound 0.1 µM)	relative viability (Bosutinib + Tozasertib; first compound 1 µM)	relative viability (Bosutinib + Dasatinib; first compound 0.01 µM)	relative viability (Bosutinib + Dasatinib; first compound 0.03162 µM)	relative viability (Bosutinib + Dasatinib; first compound 0.1 µM)	relative viability (Bosutinib + Dasatinib; first compound 1 µM)	relative viability (Bosutinib + Foretinib; first compound 0.01 µM)	relative viability (Bosutinib + Foretinib; first compound 0.03162 µM)	relative viability (Bosutinib + Foretinib; first compound 0.1 µM)	relative viability (Bosutinib + Foretinib; first compound 1 µM)	relative viability (Bosutinib + Decitabine; first compound 0.01 µM)	relative viability (Bosutinib + Decitabine; first compound 0.03162 µM)	relative viability (Bosutinib + Decitabine; first compound 0.1 µM)	relative viability (Bosutinib + Decitabine; first compound 1 µM)	relative viability (Bosutinib + Navitoclax; first compound 0.01 µM)	relative viability (Bosutinib + Navitoclax; first compound 0.03162 µM)	relative viability (Bosutinib + Navitoclax; first compound 0.1 µM)	relative viability (Bosutinib + Navitoclax; first compound 1 µM)
LC-2-ad	0.469	0.401	0.506	0.482	0.678	0.701	0.659	0.906	0.982	0.979	0.948	0.61	0.797	0.849	0.875	0.784	0.476	0.54	0.52	0.468
LCLC-97TM1	0.461	0.267	0.244	0.362	0.849	0.869	0.851	0.685	0.902	0.902	0.904	0.894	0.249	0.262	0.215	0.271	0.541	0.464	0.595	0.483
LK-2	0.194	0.168	0.191	0.178	0.288	0.287	0.264	0.296	1.1	1.49	1.19	0.914	0.278	0.363	0.313	0.359	0.955	0.943	0.838	0.74
LOU-NH91	0.64	0.645	0.607	0.538	0.578	0.577	0.547	0.556	0.912	0.929	0.845	0.538	0.818	0.834	0.765	0.653	0.755	0.713	0.666	0.391
LU99A	0.275	0.276	0.291	0.311	0.611	0.582	0.635	0.548	0.853	1.04	0.967	1.07	0.871	0.945	0.961	0.861	0.769	0.878	0.782	1.06
LXF-289	0.183	0.191	0.238	0.179	0.231	0.213	0.2	0.224	0.926	1	0.979	0.913	0.338	0.368	0.427	0.449	0.938	0.945	0.911	0.966
NCI-H23	0.368	0.345	0.404	0.364	0.927	0.937	0.679	0.76	0.939	1.03	0.979	0.723	0.35	0.305	0.321	0.287	0.904	0.742	0.869	0.764
